# Publication PMC10108347, “Heterobifunctional Ligase Recruiters Enable pan-Degradation of Inhibitor of Apoptosis Proteins” (Journal of Medicinal Chemistry, 2023)
# “Also recorded” adds a separate entry of the source. Like-named read-outs stand apart in the source and are kept apart here.
# What was measured:
# XIAP = XIAP (Homo sapiens, UniProt P98170); assay: Immunoblotting (western blot) quantification of XIAP levels in MM.1S cells; settings: 16 h; for remaining activity at 0.1 µM: MM1.S
# [1] = biological target: T1, plasma protein (HSA column) (Homo sapiens, UniProt P02768); assay: Plasma protein binding estimated by HPLC on a […] HSA column; assay type: in vitro ADME; settings: CHIRALPAK HSA column (50 × 3 mm, 5 μm), estimated by an HPLC-based method, read-out: PPB (plasma protein binding) (converted)
# T1 construct: purchased
# T1 sequence (P02768 25-609): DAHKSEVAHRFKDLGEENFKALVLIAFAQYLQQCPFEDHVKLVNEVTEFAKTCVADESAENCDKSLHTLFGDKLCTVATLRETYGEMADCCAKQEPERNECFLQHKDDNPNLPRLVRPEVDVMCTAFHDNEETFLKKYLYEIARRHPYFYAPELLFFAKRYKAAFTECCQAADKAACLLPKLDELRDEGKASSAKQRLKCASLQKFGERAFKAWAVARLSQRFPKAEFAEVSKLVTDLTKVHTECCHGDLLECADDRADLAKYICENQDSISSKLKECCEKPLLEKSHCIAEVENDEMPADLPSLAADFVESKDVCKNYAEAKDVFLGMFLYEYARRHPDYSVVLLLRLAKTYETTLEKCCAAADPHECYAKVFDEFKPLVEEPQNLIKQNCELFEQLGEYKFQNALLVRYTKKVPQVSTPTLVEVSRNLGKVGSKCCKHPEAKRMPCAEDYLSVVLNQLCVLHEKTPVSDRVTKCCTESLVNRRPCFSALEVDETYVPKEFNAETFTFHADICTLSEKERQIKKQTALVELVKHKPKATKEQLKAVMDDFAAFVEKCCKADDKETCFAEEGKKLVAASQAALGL
# Method: Plasma protein binding (% PPB) was estimated by correlating the logarithmic retention times of the analytes on a […] HSA 50 × 3 mm, 5 μm column with the literature-known % PPB values (converted into log K values) of the following drugs: warfarin, ketoprofen, budesonide, nizatidine, indomethacin, acetylsalicylic acid, carbamazepine, piroxicam, nicardipine, and cimetidine (for details, see Valko et al.).[67] The samples were dissolved in MeCN/DMSO 9:1 to achieve a final concentration of 0.5 mg/mL. Mobile phase A was 50 mM ammonium acetate adjusted to pH 7.4 with ammonia solution, while mobile phase B was iPrOH. The flow rate was set to 1.0 mL/min, the UV detector was set to 254 nm, and the column temperature was kept at 30 °C. After injecting 2 μL of the sample, a linear gradient from 100% A to 30% iPrOH in 5.4 min was applied. From 5.4 to 18 min, 30% iPrOH was kept, followed by switching back to 100% A in 1.0 min and a re-equilibration time of 6 min. With the aid of the calibration line (R^2 = 0.96), the log K values of new substances were calculated and converted to their % PPB values.
# [2] = Log D7.4 measurement by chromatographic (fast-gradient HPLC) method; settings: pH 7.4
# Method: The system was calibrated by plotting the retention times of six different drugs (atenolol, metoprolol, labetalol, diltiazem, triphenylene, and permethrin) versus their literature-known log D7.4 in a calibration line (R^2 = 0.99). Subsequently, the mean retention times of the analytes were taken to calculate their log D7.4 values with the aid of the calibration line. At least two independent measurements of each analyte were performed.
# [3] = test system: IAPs (cIAP1, cIAP2, XIAP); assay: Immunoblotting of IAPs in MM.1S cells, overall degradation profile, time course and washout; assay type: cell-based; settings: 16 h, western blot, concentration (10 nM to 1 μM)
# Method: Next, we examined the persistence of IAP degradation in MM.1S cells after a single exposure to 1 μM of 9 and subsequent removal of the compound. […] The reliance on CRL2^VHL was assessed with a neddylation inhibitor MLN4924, which blocks the activity of CRLs (Figure S13A).
# VHL30 = VHL30 (Homo sapiens, UniProt P40337); assay: Immunoblotting (western blot) quantification of VHL30 levels in MM.1S cells; settings: MM1.S, 16 h
# VHL30, sequence (P40337 whole entry): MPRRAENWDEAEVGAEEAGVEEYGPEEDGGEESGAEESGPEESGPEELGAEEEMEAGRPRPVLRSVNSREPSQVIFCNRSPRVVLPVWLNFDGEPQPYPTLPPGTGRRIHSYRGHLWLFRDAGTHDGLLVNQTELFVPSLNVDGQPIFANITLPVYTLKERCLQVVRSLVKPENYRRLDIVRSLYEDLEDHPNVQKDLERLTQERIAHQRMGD
# Method: (§1) To evaluate the capability of our panel of hetero-PROTACs for E3 ligase degradation, VHL19, VHL30, CRBN, cIAP1, cIAP2, and XIAP levels were quantified by western blot analyses. […] SDS-PAGE was performed, and proteins were then transferred onto PVDF membranes. Blotted membranes were blocked with 5% milk in Tris-buffered saline/Tween20 (TBST). Primary antibodies were diluted in 5% BSA in TBST, and incubations were performed overnight at 4 °C. Secondary HRP-conjugated antibodies diluted in 5% milk were incubated for 1 h at room temperature. Detection of proteins on PVDF was carried out using the WesternBright ECL HRP substrate or the WesternBright Sirius HRP substrate (Advansta, San Jose, USA) and imaged with LAS 4000× (Fujifilm). Membranes were subjected to 10 min incubation with Restore Western Blot Stripping Buffer (Thermo Fisher Scientific, Waltham, USA), followed by TBST washes. After brief re-activation with methanol, the membranes were blocked, and further probing of proteins was carried out.
# (§2) Quantification of blots was performed using ImageJ software (National Institutes of Health).
# cIAP2 = cIAP2 (Homo sapiens, UniProt Q13489); assay: Immunoblotting (western blot) quantification of cIAP2 levels in MM.1S cells; settings: MM1.S, 16 h
# cIAP2, sequence (Q13489 whole entry): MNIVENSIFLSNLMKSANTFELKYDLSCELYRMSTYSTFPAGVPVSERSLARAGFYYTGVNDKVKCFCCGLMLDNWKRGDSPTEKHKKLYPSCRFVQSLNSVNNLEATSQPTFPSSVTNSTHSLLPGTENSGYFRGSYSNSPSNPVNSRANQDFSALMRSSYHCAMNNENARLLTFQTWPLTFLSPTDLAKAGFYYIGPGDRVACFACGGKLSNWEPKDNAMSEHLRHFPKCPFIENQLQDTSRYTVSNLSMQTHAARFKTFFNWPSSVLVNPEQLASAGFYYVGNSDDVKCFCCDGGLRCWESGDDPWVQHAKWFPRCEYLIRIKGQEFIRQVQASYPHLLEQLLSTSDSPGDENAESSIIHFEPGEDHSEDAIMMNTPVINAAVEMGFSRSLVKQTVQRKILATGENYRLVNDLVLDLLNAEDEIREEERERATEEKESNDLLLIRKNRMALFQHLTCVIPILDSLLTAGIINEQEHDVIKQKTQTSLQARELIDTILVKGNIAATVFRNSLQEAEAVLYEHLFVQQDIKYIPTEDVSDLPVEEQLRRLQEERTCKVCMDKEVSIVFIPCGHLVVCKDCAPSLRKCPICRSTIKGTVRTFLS
# cIAP1 = cIAP1 (Homo sapiens, UniProt Q13490); assay: Immunoblotting (western blot) quantification of cIAP1 levels in MM.1S cells; settings: MM1.S, 16 h
# cIAP1, sequence (Q13490 whole entry): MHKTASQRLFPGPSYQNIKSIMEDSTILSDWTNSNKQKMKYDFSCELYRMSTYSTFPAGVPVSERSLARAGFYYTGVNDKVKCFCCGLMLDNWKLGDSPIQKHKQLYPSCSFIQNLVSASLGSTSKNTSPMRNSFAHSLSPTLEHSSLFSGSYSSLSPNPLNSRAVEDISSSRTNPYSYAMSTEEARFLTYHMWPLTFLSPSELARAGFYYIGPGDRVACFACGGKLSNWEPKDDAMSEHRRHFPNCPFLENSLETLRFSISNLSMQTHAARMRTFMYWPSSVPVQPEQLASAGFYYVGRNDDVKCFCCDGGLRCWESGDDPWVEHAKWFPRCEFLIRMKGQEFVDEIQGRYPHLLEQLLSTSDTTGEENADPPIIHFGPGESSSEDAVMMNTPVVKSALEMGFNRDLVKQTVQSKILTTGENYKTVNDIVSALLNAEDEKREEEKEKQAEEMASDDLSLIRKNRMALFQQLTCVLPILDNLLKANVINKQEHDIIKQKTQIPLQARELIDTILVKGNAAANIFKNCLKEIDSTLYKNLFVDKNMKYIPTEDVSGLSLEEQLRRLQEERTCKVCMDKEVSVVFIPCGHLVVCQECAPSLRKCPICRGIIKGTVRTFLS
# Method: as §1, §2
# [4] = read-out: %remaining protein XIAP
# [5] = read-out: %remaining protein VHL30
# [6] = read-out: %remaining protein cIAP2
# [7] = read-out: %remaining protein cIAP1
# XIAP, sequence (P98170 whole entry): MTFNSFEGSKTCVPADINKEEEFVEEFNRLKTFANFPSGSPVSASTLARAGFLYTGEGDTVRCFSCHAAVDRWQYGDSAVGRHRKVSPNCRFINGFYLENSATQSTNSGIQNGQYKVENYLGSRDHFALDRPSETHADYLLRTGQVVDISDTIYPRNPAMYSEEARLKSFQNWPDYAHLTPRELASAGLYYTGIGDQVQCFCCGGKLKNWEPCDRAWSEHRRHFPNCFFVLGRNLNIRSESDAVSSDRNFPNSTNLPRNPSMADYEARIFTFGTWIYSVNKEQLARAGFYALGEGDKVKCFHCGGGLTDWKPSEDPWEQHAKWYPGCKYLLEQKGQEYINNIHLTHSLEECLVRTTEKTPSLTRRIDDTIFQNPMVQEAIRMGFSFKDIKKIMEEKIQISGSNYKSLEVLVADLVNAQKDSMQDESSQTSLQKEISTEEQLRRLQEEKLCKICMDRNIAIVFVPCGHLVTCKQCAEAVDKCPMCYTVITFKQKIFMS
Structure (SMILES),"XIAP degradation (in words) (XIAP; MM.1S cells, western blot, 0.1 or 1 μM)",fraction unbound at 0.5 mg/mL [1],chromatographic logD [2],"remaining activity at 0.1 µM (XIAP; read-out: %remaining protein XIAP, MM.1S cells, 16 h treatment at 0.1 μM, normalized to loading control and DMSO) [%]",IAP degradation profile (in words) [3],"remaining activity at 0.1 µM (VHL30; read-out: %remaining protein VHL30, MM.1S cells, 16 h treatment at 0.1 μM, normalized to loading control and DMSO) [%]","remaining activity at 0.1 µM (cIAP2; read-out: %remaining protein cIAP2, MM.1S cells, 16 h treatment at 0.1 μM, normalized to loading control and DMSO) [%]","remaining activity at 0.1 µM (cIAP1; read-out: %remaining protein cIAP1, MM.1S cells, 16 h treatment at 0.1 μM, normalized to loading control and DMSO) [%]",remaining activity at 0.1 µM (XIAP; [4]) [%],remaining activity at 0.1 µM (VHL30; [5]) [%],remaining activity at 0.1 µM (cIAP2; [6]) [%],remaining activity at 0.1 µM (cIAP1; [7]) [%]
"CN[C@@H](C)C(=O)N[C@H](C(=O)N1CCC[C@H]1c1nc(C(=O)c2ccc(F)cc2)cs1)C1CCCCC1 [LCL161, reference compound]",failed to degrade XIAP,0.12,3.3,–,–,–,–,–,–,–,–,–
"Cc1ncsc1-c1ccc([C@H](C)NC(=O)[C@@H]2C[C@@H](O)CN2C(=O)[C@@H](NC(=O)CCCCOc2cccc(O[C@H]3C[C@@H](C(=O)N[C@@H]4CCCc5ccccc54)N(C(=O)[C@@H](NC(=O)[C@H](C)N(C)C(=O)OC(C)(C)C)C4CCCCC4)C3)c2)C(C)(C)C)cc1 [PROTAC 10d, tert-Butyl ((S)-1-(((S)-1-Cyclohexyl-2-((2S,4S)-4-(3-((5-(((S)-1-((2S,4R)-4-hydroxy-2-(((S)-1-(4-(4-methylthiazol-5-yl)phenyl)ethyl)carbamoyl)pyrrolidin-1-yl)-3,3-dimethyl-1-oxobutan-2-yl)amino)-5-oxopentyl)oxy)phenoxy)-2-(((R)-1,2,3,4-tetrahydronaphthalen-1-yl)carbamoyl)pyrrolidin-1-yl)-2-oxoethyl)amino)-1-oxopropan-2-yl)(methyl)carbamate]",–,–,–,87,inactivated PROTACs,> 99,88,73,–,–,–,–
"CN[C@@H](C)C(=O)N[C@H](C(=O)N1C[C@@H](Oc2cccc(OCCCCCOc3cc(-c4scnc4C)ccc3CNC(=O)[C@@H]3C[C@@H](O)CN3C(=O)[C@H](C(C)C)N3Cc4ccccc4C3=O)c2)C[C@H]1C(=O)N[C@@H]1CCCc2ccccc21)C1CCCCC1 [PROTAC 12, (2S,4S)-1-((S)-2-Cyclohexyl-2-((S)-2-(methylamino)propanamido)acetyl)-4-(3-((5-(2-(((2S,4R)-4-hydroxy-1-((S)-3-methyl-2-(1-oxoisoindolin-2-yl)butanoyl)pyrrolidine-2-carboxamido)methyl)-5-(4-methylthiazol-5-yl)phenoxy)pentyl)oxy)phenoxy)-N-((R)-1,2,3,4-tetrahydronaphthalen-1-yl)pyrrolidine-2-carboxamide]",–,0.04,4,–,–,–,–,–,5,55,29,4
"CN[C@@H](C)C(=O)N[C@H](C(=O)N1C[C@@H](Oc2cccc(OCCCCCCCCOc3cc(-c4scnc4C)ccc3CNC(=O)[C@@H]3C[C@@H](O)CN3C(=O)[C@H](C(C)C)N3Cc4ccccc4C3=O)c2)C[C@H]1C(=O)N[C@@H]1CCCc2ccccc21)C1CCCCC1 [PROTAC 13, (2S,4S)-1-((S)-2-Cyclohexyl-2-((S)-2-(methylamino)propanamido)acetyl)-4-(3-((8-(2-(((2S,4R)-4-hydroxy-1-((S)-3-methyl-2-(1-oxoisoindolin-2-yl)butanoyl)pyrrolidine-2-carboxamido)methyl)-5-(4-methylthiazol-5-yl)phenoxy)octyl)oxy)phenoxy)-N-((R)-1,2,3,4-tetrahydronaphthalen-1-yl)pyrrolidine-2-carboxamide]",–,0.03,4.8,–,–,–,–,–,5,53,15,3
"CN[C@@H](C)C(=O)N[C@H](C(=O)N1C[C@@H](Oc2cccc(OCCCCOCCCCOc3cc(-c4scnc4C)ccc3CNC(=O)[C@@H]3C[C@@H](O)CN3C(=O)[C@H](C(C)C)N3Cc4ccccc4C3=O)c2)C[C@H]1C(=O)N[C@@H]1CCCc2ccccc21)C1CCCCC1 [PROTAC 14, (2S,4S)-1-((S)-2-Cyclohexyl-2-((S)-2-(methylamino)propanamido)acetyl)-4-(3-(4-(4-(2-(((2S,4R)-4-hydroxy-1-((S)-3-methyl-2-(1-oxoisoindolin-2-yl)butanoyl)pyrrolidine-2-carboxamido)methyl)-5-(4-methylthiazol-5-yl)phenoxy)butoxy)butoxy)phenoxy)-N-((R)-1,2,3,4-tetrahydronaphthalen-1-yl)pyrrolidine-2-carboxamide]",–,0.04,4.2,–,–,–,–,–,3,39,15,2
"CN[C@@H](C)C(=O)N[C@H](C(=O)N1C[C@@H](Oc2cccc(OCCOCCOCCOc3cc(-c4scnc4C)ccc3CNC(=O)[C@@H]3C[C@@H](O)CN3C(=O)[C@H](C(C)C)N3Cc4ccccc4C3=O)c2)C[C@H]1C(=O)N[C@@H]1CCCc2ccccc21)C1CCCCC1 [PROTAC 15, (2S,4S)-1-((S)-2-Cyclohexyl-2-((S)-2-(methylamino)propanamido)acetyl)-4-(3-(2-(2-(2-(2-(((2S,4R)-4-hydroxy-1-((S)-3-methyl-2-(1-oxoisoindolin-2-yl)butanoyl)pyrrolidine-2-carboxamido)methyl)-5-(4-methylthiazol-5-yl)phenoxy)ethoxy)ethoxy)ethoxy)phenoxy)-N-((R)-1,2,3,4-tetrahydronaphthalen-1-yl)pyrrolidine-2-carboxamide]",–,0.05,3.4,–,–,–,–,–,3,51,32,3
"CN[C@@H](C)C(=O)N[C@H](C(=O)N1C[C@@H](Oc2cccc(OCCOCCOCCOCCOc3cc(-c4scnc4C)ccc3CNC(=O)[C@@H]3C[C@@H](O)CN3C(=O)[C@H](C(C)C)N3Cc4ccccc4C3=O)c2)C[C@H]1C(=O)N[C@@H]1CCCc2ccccc21)C1CCCCC1 [PROTAC 16, (2S,4S)-1-((S)-2-Cyclohexyl-2-((S)-2-(methylamino)propanamido)acetyl)-4-(3-(2-(2-(2-(2-(2-(((2S,4R)-4-hydroxy-1-((S)-3-methyl-2-(1-oxoisoindolin-2-yl)butanoyl)pyrrolidine-2-carboxamido)methyl)-5-(4-methylthiazol-5-yl)phenoxy)ethoxy)ethoxy)ethoxy)ethoxy)phenoxy)-N-((R)-1,2,3,4-tetrahydronaphthalen-1-yl)pyrrolidine-2-carboxamide]",–,0.05,3.3,–,–,–,–,–,2,41,31,3
"CN[C@@H](C)C(=O)N[C@H](C(=O)N1C[C@@H](Oc2cccc(OCCCCCCOCCCCCCOCCCCCCOc3cc(-c4scnc4C)ccc3CNC(=O)[C@@H]3C[C@@H](O)CN3C(=O)[C@H](C(C)C)N3Cc4ccccc4C3=O)c2)C[C@H]1C(=O)N[C@@H]1CCCc2ccccc21)C1CCCCC1 [PROTAC 19, (2S,4S)-1-((S)-2-Cyclohexyl-2-((S)-2-(methylamino)propanamido)acetyl)-4-(3-((6-((6-((6-(2-(((2S,4R)-4-hydroxy-1-((S)-3-methyl-2-(1-oxoisoindolin-2-yl)butanoyl)pyrrolidine-2-carboxamido)methyl)-5-(4-methylthiazol-5-yl)phenoxy)hexyl)oxy)hexyl)oxy)hexyl)oxy)phenoxy)-N-((R)-1,2,3,4-tetrahydronaphthalen-1-yl)pyrrolidine-2-carboxamide]",–,–,6.3,–,dual cIAP1/XIAP degradation at 0.1 μM concentration; also recorded: pan-IAP degradation at 1 μM; also recorded: no degradation at 10 nM,–,–,–,34,95,84,27
